Laboratory results from the supplement of paper PMC10307832.

How the values were obtained:
Test in all cases: relative viability (nuclei count vs DMSO), 5 days (fraction); higher = more cells survive
[1] = compound: Cc1ccc(C(=O)Nc2cccc(C(F)(F)F)c2)cc1Nc1cncc(C(N)=O)c1 [ALW-II-49-7] + COc1cc2c(Oc3ccc(NC(=O)C4(C(=O)Nc5ccc(F)cc5)CC4)cc3F)ccnc2cc1OCCCN1CCOCC1 [Foretinib] (partner 0.25 µM)
In short: (§1)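 Lung cancer cell lines in 1536-well plates got either a single drug or a fixed anchor-drug dose together with five library-drug doses (not always all listed) in √10 steps, by pin tool, on the day after seeding. Nuclei were counted after 5 days, and relative viability is the treated-to-vehicle ratio of nuclei counts. Values are medians of duplicate plates.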

[2] = compound: C1CC1C(=O)NC2=NNC3=C2C=CC(=C3)C4=CC(=CC=C4)C(=O)NC5CC5 [XMD13-2] + CC(=O)Nc1cccc(-n2c(=O)n(C3CC3)c(=O)c3c(Nc4ccc(I)cc4F)n(C)c(=O)c(C)c32)c1 [Trametinib] (partner 0.02 µM)
In short: as §1

[3] = compound: Cc1ccc(C(=O)Nc2cccc(C(F)(F)F)c2)cc1Nc1cncc(C(N)=O)c1 [ALW-II-49-7] + CS(=O)(=O)CCNCc1ccc(-c2ccc3ncnc(Nc4ccc(OCc5cccc(F)c5)c(Cl)c4)c3c2)o1 [Lapatinib] (partner 2 µM)
In short: as §1

[4] = compound: C1CC1C(=O)NC2=NNC3=C2C=CC(=C3)C4=CC(=CC=C4)C(=O)NC5CC5 [XMD13-2] + CS(=O)(=O)CCNCc1ccc(-c2ccc3ncnc(Nc4ccc(OCc5cccc(F)c5)c(Cl)c4)c3c2)o1 [Lapatinib] (partner 2 µM)
In short: as §1

In the case of UMC-11, the relative viability ([1]; first compound 0.08 µM) was 1.11, the relative viability ([1]; first compound 0.253 µM) was 1.06 and the relative viability ([1]; first compound 0.8 µM) was 0.991. The relative viability ([1]; first compound 2.53 µM) was 1.07, the relative viability ([1]; first compound 8 µM) was 1.03 and the relative viability ([2]; first compound 0.05 µM) was 0.908. The relative viability ([2]; first compound 0.1581 µM) was 0.708, the relative viability ([2]; first compound 0.5 µM) was 0.726 and the relative viability ([2]; first compound 1.581 µM) was 0.685. The relative viability ([2]; first compound 5 µM) was 0.513, the relative viability ([3]; first compound 0.08 µM) was 0.943 and the relative viability ([3]; first compound 0.253 µM) was 1.08. The relative viability ([3]; first compound 0.8 µM) was 0.998, the relative viability ([3]; first compound 2.53 µM) was 1.04 and the relative viability ([3]; first compound 8 µM) was 0.806. It also gave a relative viability ([4]; first compound 0.05 µM) of 1.18, a relative viability ([4]; first compound 0.1581 µM) of 0.856 and a relative viability ([4]; first compound 0.5 µM) of 1.01. For the same cell line, the relative viability ([4]; first compound 1.581 µM) was 0.901 and the relative viability ([4]; first compound 5 µM) was 1.08.
